Laboratory results published in publication PMC8877061, “Antifungal and Antibiofilm Activity of Cyclic Temporin L Peptide Analogues against Albicans and Non-Albicans Candida Species” (Pharmaceutics, 2022).
Where two headings read alike, the source gives them in different places. Positions of bridges follow the written chain, without caps; N, C: chain ends. Non-standard residues stand in square brackets, D forms with d. Residues, ends and D or L forms follow the SMILES beside them. Triazole bridges read from a SMILES are 1,4-linked. dLys(N3) = [N-]=[N+]=NCCCC[C@@H](N)C(=O)O; Lys(N3) = [N-]=[N+]=NCCCC[C@H](N)C(=O)O; S5 = C=CCCC[C@](C)(N)C(=O)O; dPra = C#CC[C@@H](N)C(=O)O; Pra = C#CC[C@H](N)C(=O)O

How the values were obtained:
C. parapsilosis DSM 5784 = format: cell-based
C. albicans ATCC 90028 = format: cell-based
Protocol: C. albicans ATCC 90028, C. auris DSM 21092, C. glabrata DSM 11226, C. tropicalis DSM11951 and C. parapsilosis DSM 4874 grown on YPD Agar (1% w/v yeast extract, 2% w/v peptone, 2% w/v glucose, 1.5% Agar) were cultured in Tryptone soya broth supplemented with 0.1% glucose for 16–18 h at 37 °C, washed twice using sterile phosphate-buffered saline (PBS) and standardized to […] as required for the experiments. RPMI1640 medium (Thermo Fisher Scientific, Waltham, MA, USA) buffered to a pH of 7.0 with 0.165 M MOPS was used for growing the biofilms of all Candida species.
The antifungal activity of peptides against all five Candida species was determined according to CLSI-M27-A3 [33], as reported previously. Briefly, the compounds were tested at concentrations ranging from […] to 50 μM, and the organism suspensions were adjusted to an inoculum of 10^6 cell/mL at OD 590 nm in RPMI 1640, added to the 96-well plate and incubated at 37 °C for 24 h. The minimum inhibitory concentration (MIC) values were determined as the lowest concentration inhibiting fungal growth at 590 nm using a microplate reader (Synergy™ H4; BioTek Instruments, Inc., Winooski, VT, USA). […] The MFC was the lowest concentration that yielded no colony growth on the agar. The MFC/MIC ratio was calculated to determine whether the substance had fungistatic (MFC/MIC ≥ 4) or fungicidal (MFC/MIC < 4) activity.

[1] = CLSI-M27-A3, RPMI 1640, 10^6 cell/mL, 37 °C, 24 h, read at 590 nm, tested 6.5 to 50 μM

Row | SMILES | MIC, C. parapsilosis DSM 5784 (C. parapsilosis DSM 5784; DSM 5784, 24 h) | MIC, C. albicans ATCC 90028 (C. albicans ATCC 90028; ATCC 90028, 24 h) | MIC, C. parapsilosis DSM 5784 (C. parapsilosis DSM 5784; [1]) | MIC, C. albicans ATCC 90028 (C. albicans ATCC 90028; [1])
1 | CC(C)C[C@H](NC(=O)[C@@H]1CCC(=O)NCCCC[C@H](NC(=O)[C@H](CCCCN)NC(=O)[C@H](CO)NC(=O)[C@H](Cc2ccccc2)NC(=O)[C@H](Cc2c[nH]c3ccccc23)NC(=O)[C@@H]2CCCN2C(=O)[C@@H](NC(=O)[C@@H](N)Cc2ccccc2)C(C)C)C(=O)N[C@H](CC(C)C)C(=O)NCC(=O)N[C@@H](CCCNC(=N)N)C(=O)N1)C(N)=O [compound 2] (H-FVPWFSKK[dL]GREL-NH2; lactam 8-12; N-terminus assumed) | >50 µM | >50 µM |  | 
2 | CC(C)C[C@H](NC(=O)[C@@H]1CCC(=O)NCCCC[C@H](NC(=O)[C@H](Cc2c[nH]c3ccccc23)NC(=O)[C@@H]2CCCN2C(=O)[C@@H](NC(=O)[C@@H](N)Cc2ccccc2)C(C)C)C(=O)N[C@@H](CO)C(=O)N[C@@H](CCCCN)C(=O)N[C@@H](Cc2ccccc2)C(=O)N[C@H](CC(C)C)C(=O)NCC(=O)N[C@@H](CCCNC(=N)N)C(=O)N1)C(N)=O [compound 12] (H-FVPWKSKF[dL]GREL-NH2; lactam 5-12; N-terminus assumed) | >50 µM | >50 µM |  | 
3 | CC[C@H](C)[C@H](NC(=O)[C@H](CCCNC(=N)N)NC(=O)CNC(=O)[C@@H](CC(C)C)NC(=O)[C@@H]1CCC(=O)NCCCC[C@H](NC(=O)[C@@H]2CCCN2C(=O)[C@@H](NC(=O)[C@@H](N)Cc2ccccc2)C(C)C)C(=O)N[C@@H](Cc2ccccc2)C(=O)N[C@@H](CO)C(=O)N[C@@H](CCCCN)C(=O)N1)C(=O)N[C@@H](CC(C)C)C(N)=O [compound 5] (H-FVPKFSKE[dL]GRIL-NH2; lactam 4-8; N-terminus assumed) | >50 µM | >50 µM |  | 
4 | CC[C@H](C)[C@H](NC(=O)[C@H](CCCNC(=N)N)NC(=O)CNC(=O)[C@H]1CCC(=O)NCCCC[C@H](NC(=O)[C@H](Cc2c[nH]c3ccccc23)NC(=O)[C@@H]2CCCN2C(=O)[C@@H](NC(=O)[C@@H](N)Cc2ccccc2)C(C)C)C(=O)N[C@@H](CO)C(=O)N[C@@H](CCCCN)C(=O)N[C@@H](Cc2ccccc2)C(=O)N1)C(=O)N[C@@H](CC(C)C)C(N)=O [compound 4] (H-FVPWKSKF[dE]GRIL-NH2; lactam 5-9; N-terminus assumed) | >50 µM | >50 µM |  | 
5 | CC[C@H](C)[C@H](NC(=O)[C@H](CCCNC(=N)N)NC(=O)CNC(=O)[C@H]1CCCCn2cc(nn2)C[C@H](NC(=O)[C@H](Cc2c[nH]c3ccccc23)NC(=O)[C@@H]2CCCN2C(=O)[C@@H](NC(=O)[C@@H](N)Cc2ccccc2)C(C)C)C(=O)N[C@@H](CO)C(=O)N[C@@H](CCCCN)C(=O)N[C@@H](Cc2ccccc2)C(=O)N1)C(=O)N[C@@H](CC(C)C)C(N)=O [compound 9] (H-FVPW[Pra]SKF[dLys(N3)]GRIL-NH2; triazole 5-9; N-terminus assumed) | >50 µM | >50 µM |  | 
6 | CC[C@H](C)[C@@H]1NC(=O)[C@H](CCCNC(=N)N)NC(=O)CNC(=O)[C@H](NC(=O)[C@H](Cc2ccccc2)NC(=O)[C@H](CCCCN)NC(=O)[C@H](CO)NC(=O)[C@H](Cc2ccccc2)NC(=O)[C@H](Cc2c[nH]c3ccccc23)NC(=O)[C@@H]2CCCN2C(=O)[C@@H](NC(=O)[C@@H](N)Cc2ccccc2)C(C)C)CCCCNC(=O)CC[C@@H](C(N)=O)NC1=O [compound 1] (H-FVPWFSKF[dK]GRIE-NH2; lactam 9-13; N-terminus assumed) |  |  | >50 µM | >50 µM
7 | CC[C@H](C)[C@H](NC(=O)[C@H](CCCNC(=N)N)NC(=O)CNC(=O)[C@@H](CC(C)C)NC(=O)[C@@H]1CCCCn2cc(nn2)C[C@H](NC(=O)[C@@H]2CCCN2C(=O)[C@@H](NC(=O)[C@@H](N)Cc2ccccc2)C(C)C)C(=O)N[C@@H](Cc2ccccc2)C(=O)N[C@@H](CO)C(=O)N[C@@H](CCCCN)C(=O)N1)C(=O)N[C@@H](CC(C)C)C(N)=O [compound 10] (H-FVP[Pra]FSK[Lys(N3)][dL]GRIL-NH2; triazole 4-8; N-terminus assumed) | >50 µM | >50 µM |  | 
8 | CC[C@H](C)[C@H](NC(=O)[C@H](CCCNC(=N)N)NC(=O)[C@]1(C)CCCC=CCCC[C@](C)(NC(=O)[C@H](Cc2ccccc2)NC(=O)[C@H](Cc2c[nH]c3ccccc23)NC(=O)[C@@H]2CCCN2C(=O)[C@@H](NC(=O)[C@@H](N)Cc2ccccc2)C(C)C)C(=O)N[C@@H](CCCCN)C(=O)N[C@@H](Cc2ccccc2)C(=O)N[C@H](CC(C)C)C(=O)N1)C(=O)N[C@@H](CC(C)C)C(N)=O [compound 17] (H-FVPWF[S5]KF[dL][S5]RIL-NH2; staple 6-10; N-terminus assumed) | >50 µM | >50 µM |  | 

Second part, led by results:

Row | MIC, C. parapsilosis DSM 5784 (C. parapsilosis DSM 5784; DSM 5784, 24 h) | MIC, C. albicans ATCC 90028 (C. albicans ATCC 90028; ATCC 90028, 24 h) | SMILES | MIC, C. parapsilosis DSM 5784 (C. parapsilosis DSM 5784; [1]) | MIC, C. albicans ATCC 90028 (C. albicans ATCC 90028; [1])
9 | >50 µM | >50 µM | CC[C@H](C)[C@@H]1NC(=O)[C@H](CCCNC(=N)N)NC(=O)CNC(=O)[C@H](NC(=O)[C@H](Cc2ccccc2)NC(=O)[C@H](CCCCN)NC(=O)[C@H](CO)NC(=O)[C@H](Cc2ccccc2)NC(=O)[C@H](Cc2c[nH]c3ccccc23)NC(=O)[C@@H]2CCCN2C(=O)[C@@H](NC(=O)[C@@H](N)Cc2ccccc2)C(C)C)Cc2cn(nn2)CCCC[C@@H](C(N)=O)NC1=O [compound 6] (H-FVPWFSKF[dPra]GRI[Lys(N3)]-NH2; triazole 9-13; N-terminus assumed) |  | 
10 | >50 µM | >50 µM | CC[C@H](C)[C@H](NC(=O)[C@H](CCCNC(=N)N)NC(=O)[C@@H]1CCCCn2cc(nn2)C[C@H](NC(=O)[C@H](Cc2ccccc2)NC(=O)[C@H](Cc2c[nH]c3ccccc23)NC(=O)[C@@H]2CCCN2C(=O)[C@@H](NC(=O)[C@@H](N)Cc2ccccc2)C(C)C)C(=O)N[C@@H](CCCCN)C(=O)N[C@@H](Cc2ccccc2)C(=O)N[C@H](CC(C)C)C(=O)N1)C(=O)N[C@@H](CC(C)C)C(N)=O [compound 8] (H-FVPWF[Pra]KF[dL][Lys(N3)]RIL-NH2; triazole 6-10; N-terminus assumed) |  | 
11 | >50 µM | >50 µM | CC(C)C[C@H](NC(=O)[C@@H]1CCCCn2cc(nn2)C[C@H](NC(=O)[C@H](Cc2c[nH]c3ccccc23)NC(=O)[C@@H]2CCCN2C(=O)[C@@H](NC(=O)[C@@H](N)Cc2ccccc2)C(C)C)C(=O)N[C@@H](CO)C(=O)N[C@@H](CCCCN)C(=O)N[C@@H](Cc2ccccc2)C(=O)N[C@H](CC(C)C)C(=O)NCC(=O)N[C@@H](CCCNC(=N)N)C(=O)N1)C(N)=O [compound 14] (H-FVPW[Pra]SKF[dL]GR[Lys(N3)]L-NH2; triazole 5-12; N-terminus assumed) |  | 
12 | >50 µM | >50 µM | CC[C@H](C)[C@@H]1NC(=O)[C@H](CCCNC(=N)N)NC(=O)CNC(=O)[C@@H](CC(C)C)NC(=O)[C@H](Cc2ccccc2)NC(=O)[C@H](CCCCN)NC(=O)[C@@H](NC(=O)[C@H](Cc2ccccc2)NC(=O)[C@H](Cc2c[nH]c3ccccc23)NC(=O)[C@@H]2CCCN2C(=O)[C@@H](NC(=O)[C@@H](N)Cc2ccccc2)C(C)C)Cc2cn(nn2)CCCC[C@@H](C(N)=O)NC1=O [compound 13] (H-FVPWF[Pra]KF[dL]GRI[Lys(N3)]-NH2; triazole 6-13; N-terminus assumed) |  | 
